Marks after values point to notes of the source that are not given here.
How the values were obtained:
ICR derived male mice = assay: Wound healing in mouse model (full-thickness punch wound, topical treatment); type: in vivo; details: mean, n=5; for CT50 (wound half-closure time): linear regression
Procedure: Groups of ICR derived male mice (weighing 24±2 g) of 5 each were used. During testing period, the animals were single-housed in each cage. Under hexobarbital (90 mg/kg, IP) anesthesia, the shoulder and back region of each animal was shaved. A sharp punch (ID 12 mm) was applied to remove the skin including panniculus carnosus and adherent tissues. […] Test substances were administered topically immediately following wound injury once daily for a total of 10 consecutive days. The closure of the wound (%) and wound half-closure time (CT50) were determined by linear regression using Graph-Pad Prism™ (Graph Pad Software USA) and unpaired Student's t test was applied for comparison between treated and vehicle groups at each measurement time point on days 3, 5, 7, 9 and 11. Differences are considered of statistical significance at P<0.05 level.
Table 1 presents test data obtained for the compound 3-ethyl-1-propyl-8-(1-{[3-(trifluoromethyl)phenyl]methyl}pyrazol-4-yl)-1,3,7-trihydropurine-2,6-dione using the mouse model discussed above. Table 2 presents test date obtained using 1,3-dipropyl-8-(1-{[6-(trifluoromethyl)(3-pyridyl)]methyl}pyrazol-4-yl)- 1,3,7-trihydropurine-2,6-dione. In each case, the vehicle used for comparison was 1.5% carboxymethylcellulose in phosphate buffered saline at pH 7.4

Yorkshire pig = assay: Wound healing in pig model (full thickness excisions, total granulation tissue); type: in vivo
Procedure: Pig skin heals most like human skin and therefore testing on this animal provides an optimal paradigm to study cutaneous repair mechanisms. In this Example, the effect of an A2B antagonist on wound healing was tested in three pigs. PDGF (REGRANEX® (becaplermin) Gel 0.01%, Ortho-McNeil Pharmaceutical, Inc., Raritan, N.J.) was used as a positive control. The vehicle for drug delivery was 1.5% methylcellulose gel (KY gel). Control wounds received the vehicle alone. 3 different dosages of the A2B antagonist 3-ethyl-1-propyl-8-(1-{[3-(trifluoromethyl)phenyl]methyl}pyrazol-4-yl)-1,3,7-trihydropurine-2,6-dione, 1 μg/40 μl, 4 μg/40 μl, and 20 μg/40 μl were tested.
Method: Three Yorkshire pig ([…].) were used. On the day of surgery, a series of full thickness excisions were created alongside the paravertebral region on one side of the pig. Pigs were sacrificed at the end of 10 days and all wounds were removed for histological and immunohistochemical examinations.

With `CCCn1c(=O)c2[nH]c(-c3cnn(Cc4ccc(C(F)(F)F)nc4)c3)nc2n(CCC)c1=O` [1,3-dipropyl-8-(1-{[6-(trifluoromethyl)(3-pyridyl)]methyl}pyrazol-4-yl)-1,3,7-trihydropurine-2,6-dione] the Percent wound closure (ICR derived male mice; Table 2, 0.5 μg/mouse topical once daily, Day 3) was 41.9* %, the Percent wound closure (ICR derived male mice; Table 2, 0.5 μg/mouse topical once daily, Day 5) was 53.5* % and the Percent wound closure (ICR derived male mice; Table 2, 0.5 μg/mouse topical once daily, Day 7) was 65.8* %. For the same compound, the Percent wound closure (ICR derived male mice; Table 2, 0.5 μg/mouse topical once daily, Day 9) was 77.1* %, the Percent wound closure (ICR derived male mice; Table 2, 0.5 μg/mouse topical once daily, Day 11) was 85.3* % and the “CT50 (wound half-closure time)” value (ICR derived male mice; Table 2, 0.5 μg/mouse topical once daily) was 5.5* DAYS.
In the case of PDGF, the “Total granulation tissue, positive control versus placebo formulation” value (Yorkshire pig; REGRANEX (becaplermin) Gel 0.01%, p=0.034) is reported as “statistical difference”.
In the case of `CCCn1c(=O)c2[nH]c(-c3cnn(Cc4cccc(C(F)(F)F)c4)c3)nc2n(CC)c1=O` [3-ethyl-1-propyl-8-(1-{[3-(trifluoromethyl)phenyl]methyl}pyrazol-4-yl)-1,3,7-trihydropurine-2,6-dione], the Percent wound closure (ICR derived male mice; 0.5 μg/mouse topical once daily, Day 1) is reported as 0%, the Percent wound closure (ICR derived male mice; 0.5 μg/mouse topical once daily, Day 2) is reported as 43.2* % and the Percent wound closure (ICR derived male mice; 0.5 μg/mouse topical once daily, Day 3) is reported as 51.2* %. The Percent wound closure (ICR derived male mice; 0.5 μg/mouse topical once daily, Day 4) was 56.0* %, the Percent wound closure (ICR derived male mice; 0.5 μg/mouse topical once daily, Day 5) was 58.8* % and the Percent wound closure (ICR derived male mice; 0.5 μg/mouse topical once daily, Day 6) was 64.3* %. The Percent wound closure (ICR derived male mice; 0.5 μg/mouse topical once daily, Day 7) was 72.5* %, the Percent wound closure (ICR derived male mice; 0.5 μg/mouse topical once daily, Day 8) was 78.2* % and the Percent wound closure (ICR derived male mice; 0.5 μg/mouse topical once daily, Day 9) was 82.5* %. For the same compound, the Percent wound closure (ICR derived male mice; 0.5 μg/mouse topical once daily, Day 10) was 83.1* %, the Percent wound closure (ICR derived male mice; 0.5 μg/mouse topical once daily, Day 11) was 87.1* % and the “CT50 (wound half-closure time)” value (ICR derived male mice; 0.5 μg/mouse topical once daily) was 4.3* DAYS. For the same compound, the Percent wound closure (ICR derived male mice; 2 μg/mouse topical once daily, Day 1) was 0%, the Percent wound closure (ICR derived male mice; 2 μg/mouse topical once daily, Day 2) was 35.6* % and the Percent wound closure (ICR derived male mice; 2 μg/mouse topical once daily, Day 3) was 46.5* %. For the same compound, the Percent wound closure (ICR derived male mice; 2 μg/mouse topical once daily, Day 4) was 57.4* %, the Percent wound closure (ICR derived male mice; 2 μg/mouse topical once daily, Day 5) was 62.4% and the Percent wound closure (ICR derived male mice; 2 μg/mouse topical once daily, Day 6) was 68.3* %. For the same compound, the Percent wound closure (ICR derived male mice; 2 μg/mouse topical once daily, Day 7) was 73.3* %, the Percent wound closure (ICR derived male mice; 2 μg/mouse topical once daily, Day 8) was 78.8* % and the Percent wound closure (ICR derived male mice; 2 μg/mouse topical once daily, Day 9) was 82.2* %. For the same compound, the Percent wound closure (ICR derived male mice; 2 μg/mouse topical once daily, Day 10) was 89.2* %, the Percent wound closure (ICR derived male mice; 2 μg/mouse topical once daily, Day 11) was 91.6* % and the “CT50 (wound half-closure time)” value (ICR derived male mice; 2 μg/mouse topical once daily) was 4.4* DAYS. The “Total granulation tissue, lowest dose versus highest dose” value (Yorkshire pig; 1 μg/40 μl versus 20 μg/40 μl topical, p=0.047) was “statistical difference”, the “Total granulation tissue, highest dose versus placebo formulation” value (Yorkshire pig; 20 μg/40 μl topical, p=0.035) was “statistical difference” and the “Effect on total granulation tissue” value (Yorkshire pig; topical 1, 4 and 20 μg/40 μl in 1.5% methylcellulose gel, 10 days, FIG. 1) was “stimulated the total granulation tissue in a dose-dependent fashion”.
